# Laboratory results from patent US20220168310A1, “INHIBITION OF ADENOVIRUS WITH FILOCICLOVIR” (Microbiotix, Inc., priority 2019, published 2022).
# “Also recorded” adds a separate entry of the source.
# Legend:
# Human AdV6 = assay: Low dose filociclovir against intravenously administered AdV6 in immunosuppressed hamsters (Example 6); conditions: for AdV6-induced liver damage, serum transaminase (ALT) / AdV6 replication in the liver: 5 days post challenge; for AdV6 replication in the liver: TCID50
# Experimental: Three dose levels were tested: 1, 3, and 10 mg/kg p.o. q.d.
# All hamsters were immunosuppressed using cyclophosphamide (CP) administered intraperitoneally at a dose of 140 mg/kg, and then twice weekly at a dose of 100 mg/kg. Filociclovir in powdered form was suspended in 0.4% carboxymethyl cellulose (Sigma C5678) at 0.1, 0.3, and 1.0 mg/ml and sonicated to visual homogeneity. Filociclovir was made up once weekly, aliquoted into daily portions, and stored at 4° C. Aliquots were allowed to equilibrate to room temperature before dosing.
# Hamsters were distributed into 7 groups, 15 hamsters/group (see Table 4), immunosuppressed as described above, and injected i.v. with vehicle (Groups 1-2) or 4×10^10 PFU/kg of AdV6 (Groups 3-7). Groups 1 and 3 received drug vehicle (p.o. q.d.), Groups 2 and 6 received 10 mg/kg filociclovir (p.o. q.d.), Group 4 received 3 mg/kg filociclovir (p.o. q.d.), Group 5 received 1 mg/kg filociclovir (p.o. q.d.), and Group 7 received cidofovir (one dose of 37 mg/kg, followed by 20 mg/kg doses 3 times weekly). For all groups, drug administration started 1 day before challenge, and continued according to the schedule above for the duration of the study.
# The body weights and any signs of morbidity of the animals were monitored and recorded daily. At 5 days post challenge, 5 hamsters (designated at the start of the experiment) from each group were sacrificed, and gross pathological observation was performed. Serum and liver were collected and virus burden in liver was determined by TCID50 assay and the serum was analyzed for transaminase levels. The remaining 10 hamsters were sacrificed at 14 days post challenge. Hamsters that became moribund before Day 14 were sacrificed as needed. In addition to the animals judged moribund by observation, we sacrificed all hamsters that lost more than 20% of their original body weight. For all animals, liver tissue was preserved in formalin for histopathological examination.
# adenovirus 6 (AdV6) = assay: Neutral red survival assay, AdV6-infected A549 cells; type: cell-based, human adenovirus; conditions: FIG. 2, A549 cells, 6 days post-infection
# Text: The neutral red cell cytotoxicity assay was used to detect cell viability or drug cytotoxicity. The principle of this assay is based on the detection of viable cells via the uptake of the dye neutral red. Neutral red is a eurhodin dye that stains lysosomes in viable cells. Viable cells can take up neutral red via active transport and incorporate the dye into their lysosomes, but non-viable cells are unable not take up this chromophore. Consequently, after washing, viable cells can release the incorporated dye under acidified-extracted conditions. The amount of released dye can be quantified and used to determine the total number of viable cells or drug cytotoxicity. As such, cytotoxicity is expressed as a concentration-dependent reduction of the uptake of neutral red after exposure to the compound under investigation.
# The neutral red survival assays were carried out in a 96-well format. Briefly, A549 adenocarcinomic human alveolar basal epithelial cells were plated at a concentration of 6×10^3 cells per well one day prior to infection. AdV6 infections were carried out at 5×10^3 PFU per well (an estimated 0.5 PFU/cell at the time of infection). […] Filociclovir plates were read and the results were graphed using GraphPad Prism graphing and statistical software (GraphPad Software, San Diego, Calif.).
# [1] = 10 mg/kg q.d., listed as filociclovir
smiles,measurement,setting,value
"Nc1nc2c(ncn2/C=C2/CC2(CO)CO)c(=O)[nH]1 [FCV, 2-amino-9-{(Z)-[2,2-bis(hydroxymethyl)cyclopropylidene]methyl}-3,9-dihydro-6H-purin-6-one]",mortality,"Human AdV6; 1 mg/kg p.o. q.d., p=0.0449",moderate yet significant
same,"AdV6-induced liver damage, serum transaminase (ALT)","Human AdV6; 1 mg/kg q.d., listed as Filociclovir",ineffective
same,"AdV6-induced liver damage, serum transaminase (ALT)","Human AdV6; 1 mg/kg q.d., listed as filociclovir",largely ineffective
same,body weight loss,"Human AdV6; 1 mg/kg, listed as Filociclovir",not efficacious
same,body weight loss,"Human AdV6; 1 mg/kg, listed as filociclovir",unable to mitigate weight loss
same,mortality,Human AdV6; 3 mg/kg q.d. p.o.,completely prevented mortality
same,AdV6 replication in the liver,"Human AdV6; 3 mg/kg q.d. p.o., listed as filociclovir",suppressed virus replication to an intermediate level; also recorded: inhibits AdV6 replication in the liver
same,"AdV6-induced liver damage, serum transaminase (ALT)","Human AdV6; 3 mg/kg, p=0.0419, listed as Filociclovir",mitigated the pathology
same,"AdV6-induced liver damage, serum transaminase (ALT)","Human AdV6; 3 mg/kg, p=0.0419, listed as filociclovir",moderate yet significant effect
same,body weight loss,"Human AdV6; 3 mg/kg, listed as Filociclovir",moderately efficacious
same,body weight loss,"Human AdV6; 3 mg/kg, listed as filociclovir",partially reversed
same,mortality,Human AdV6; 10 mg/kg q.d. p.o.,completely prevented mortality
same,AdV6 replication in the liver,Human AdV6; [1],inhibits AdV6 replication in the liver
same,"AdV6-induced liver damage, serum transaminase (ALT)","Human AdV6; 10 mg/kg q.d., listed as Filociclovir",mitigated the pathology
same,"AdV6-induced liver damage, serum transaminase (ALT)",Human AdV6; [1],prevented AdV6-induced liver damage
same,body weight of uninfected hamsters,"Human AdV6; 10 mg/kg, uninfected",did not result in body weight loss
same,body weight loss,"Human AdV6; 10 mg/kg, listed as Filociclovir",completely prevented body weight loss
same,body weight loss,"Human AdV6; 10 mg/kg, listed as filociclovir",completely reversed
same,toxic effects in treated hamsters,"Human AdV6; 1, 3, 10 mg/kg p.o. q.d.",No toxic effects were observed
same,treatment-related deaths,Human AdV6; AdV6+1 mg/kg group (9 in AdV6+Vehicle),5
same,hamsters with mottled liver and enlarged gall bladder,"Human AdV6; AdV6+1 mg/kg, Day 5 sacrifice (4 in AdV6+Vehicle)",3
same,concentration as low as which is effective to improve viability of AdV6 infected cells,adenovirus 6 (AdV6),10^−1 μM
